Reference: US20230035578A1, “CONTROLLED RELEASE OF COMPOUNDS” (TECHNISCHE UNIVERSITAET MUENCHEN, priority 2019, published 2023)
Counter-ions that a name gives are not always drawn.

Assay: Drug release from surface-bound mucin layer on PDMS (UV absorbance)
Format: physicochemical
Description: The coupling reaction was performed as described previously^9. Briefly, PDMS was treated with O2 plasma at 0.4 mbar pressure and an intensity of 30 W for 90 s. The plasma treatment replaces the […] groups on the polymer surface with hydroxyl groups, which enables a covalent attachment of silane molecules. The silane was used as a coupling agent to further allow for attaching porcine gastric mucin to the surface via carbodiimide coupling. Thus, we here used N-[3-Trimethoxysilyl)propyl]ethylenediamine triacetic acid trisodium salt (TMS-EDTA, abcr, Karlsruhe, Germany), which carries three carboxy groups on the other end. TMS-EDTA was diluted to a final concentration of 0.1% (w/v) in 10 mM Acetate buffer (pH=4.5). The activated PDMS samples were then incubated in the silane solution for 5 h at 60° C. Afterwards, the samples were washed in 80% ethanol (Carl Roth) for 1 h to remove unbound residues before they were placed in the oven at 60° C. for another 60 min to stabilize the bond between the PDMS and the silane.
In the next step, the carboxyl groups of the silane were activated. Therefore, the surface was covered with 100 mM MES buffer (pH=5.0) containing 5 mM 1-Ethyl-3-(3-dimethylaminopropyl)-carbodiimid-hydrochloride (EDC, Carl Roth) and 5 mM N-Hydroxysulfosuccinimide (sulfo-NHS, abcr) at RT for 30 min. Afterwards, the EDC-NHS solution was replaced by phosphate-buffered saline (pH=7.4, Lonza, Velviers, Belgium) containing 0.1% (w/v) of purified mucin and stored at 4° C. overnight. Amine groups from the mucin protein core then react with the EDC activated groups of the silane and form a stable covalent bond.
PDMS was allowed to crosslink at 60° C. overnight. Afterwards, this PDMS layer was coated with mucin as described in Section 1.2.
The mucin layer was loaded with the drug by incubating it in a drug-containing solution (TCL or VAC, 0.5 mg/mL) at 4° C. overnight. […] […] Before starting the release experiment, excessive glycerol, drug, and salt were removed and replaced by 2 mL of ultrapure water.
The […], and the release of TCL was tracked spectroscopically with a specord210 spectral photometer (Analytikjena, Jena, Germany) at 360 nm. The amount of released drug was determined by a standard curve which was generated by measuring serial dilutions of a drug solution (see FIG. 1). The release of VAN was also tracked spectroscopically, however, at 282 nm (for calibration curve, see FIG. 2).

## CN[C@H](CC(C)C)C(=O)N[C@H]1C(=O)N[C@@H](CC(N)=O)C(=O)N[C@H]2C(=O)N[C@H]3C(=O)N[C@H](C(=O)N[C@H](C(=O)O)c4cc(O)cc(O)c4-c4cc3ccc4O)[C@H](O)c3ccc(c(Cl)c3)Oc3cc2cc(c3O[C@@H]2O[C@H](CO)[C@@H](O)[C@H](O)[C@H]2O[C@H]2C[C@](C)(N)[C@H](O)[C@H](C)O2)Oc2ccc(cc2Cl)[C@H]1O [Vancomycin, Vancomycin hydrochloride]
Group 1: glycerol, Mg^2+, trigger 150 mM NaCl, time 0 h
  CTCL, vancomycin release: 0.0014 ± 0.0010 mg/mL
Group 1: glycerol, Mg^2+, trigger 150 mM NaCl, time 0.5 h
  CTCL, vancomycin release: 0.0051 ± 0.0029 mg/mL
Group 1: glycerol, Mg^2+, trigger 150 mM NaCl, time 1.0 h
  CTCL, vancomycin release: 0.0083 ± 0.0042 mg/mL
Group 1: glycerol, Mg^2+, trigger 150 mM NaCl, time 2.0 h
  CTCL, vancomycin release: 0.0098 ± 0.0031 mg/mL
Group 1: glycerol, Mg^2+, trigger 150 mM NaCl, time 3.0 h
  CTCL, vancomycin release: 0.0097 ± 0.0029 mg/mL
Group 2: glycerol, Mg^2+, water, time 0 h
  CTCL, vancomycin release: 0.0008 ± 0.0008 mg/mL
Group 2: glycerol, Mg^2+, water, time 0.5 h
  CTCL, vancomycin release: 0.0008 ± 0.0011 mg/mL
Group 2: glycerol, Mg^2+, water, time 1.0 h
  CTCL, vancomycin release: 0.0022 ± 0.0007 mg/mL
Group 2: glycerol, Mg^2+, water, time 2.0 h
  CTCL, vancomycin release: 0.0007 ± 0.0009 mg/mL
Group 2: glycerol, Mg^2+, water, time 3.0 h
  CTCL, vancomycin release: 0.0012 ± 0.0006 mg/mL
Group 3: no condensation, Mg^2+, trigger 150 mM NaCl, time 0 h
  CTCL, vancomycin release: 0.0018 ± 0.0008 mg/mL
Group 3: no condensation, Mg^2+, trigger 150 mM NaCl, time 0.5 h
  CTCL, vancomycin release: 0.0024 ± 0.0010 mg/mL
Group 3: no condensation, Mg^2+, trigger 150 mM NaCl, time 1.0 h
  CTCL, vancomycin release: 0.0034 ± 0.0009 mg/mL
Group 3: no condensation, Mg^2+, trigger 150 mM NaCl, time 2.0 h
  CTCL, vancomycin release: 0.0034 ± 0.0003 mg/mL
Group 3: no condensation, Mg^2+, trigger 150 mM NaCl, time 3.0 h
  CTCL, vancomycin release: 0.0034 ± 0.0003 mg/mL
Group 4: no condensation, no stabilization, trigger 150 mM NaCl, time 0 h
  CTCL, vancomycin release: 0.0033 ± 0.0022 mg/mL
Group 4: no condensation, no stabilization, trigger 150 mM NaCl, time 0.5 h
  CTCL, vancomycin release: 0.0034 ± 0.0014 mg/mL
Group 4: no condensation, no stabilization, trigger 150 mM NaCl, time 1.0 h
  CTCL, vancomycin release: 0.0022 ± 0.0005 mg/mL
Group 4: no condensation, no stabilization, trigger 150 mM NaCl, time 2.0 h
  CTCL, vancomycin release: 0.0011 ± 0.0010 mg/mL
Group 4: no condensation, no stabilization, trigger 150 mM NaCl, time 3.0 h
  CTCL, vancomycin release: 0.0013 ± 0.0011 mg/mL
Mg^2+, 150 mM NaCl
  release after exposure to physiological trigger: release was observed
Mg^2+, no trigger
  release where the trigger was absent: almost no release was observed
